We go through one substance from paper PMC9961948, “Interaction of Amphipathic Peptide from Influenza Virus M1 Protein with Mitochondrial Cytochrome Oxidase” (International Journal of Molecular Sciences, 2023).

This experiment concerns the target T1, cytochrome c oxidase (CcO) purified from heart mitochondria (Bos taurus, UniProt P00396+P07471+P68530).
T1 construct: Cytochrome c oxidase was purified from the heart mitochondria of Bos taurus; from tissue; host or cells: bovine heart mitochondria
The experiment can be described thus: Cytochrome oxidase activity of solubilized mitochondrial CcO (oxygen uptake). It is filed as biochemical. Conditions: solubilized bovine heart CcO 20 nM; oxygen uptake, Clark electrode, 25 °C; BM 50 mM Hepes/Tris pH 7.6, 50 mM KCl, 1 mM (0.05%) DM; 5 mM ascorbate, 0.1 mM TMPD, 10 μM cytochrome c; fit by Equation (1); read-out: Inhibition of CcO, Solubilized, Ki(app).

Turning to Ac-STKLWEMLVELGNMDKAVKLWRKLSR-NH2 [A4], the Ki was 0.0223 mM.
